Patent publication US9394273B2, “Therapeutic prostaglandin receptor agonists” (Allergan, Inc., priority 2014, dated 2016)
pEC50, pKi: −log10 of the molar value.

Legend:
EP2 [1] = molecular target: T1, EP2 (Homo sapiens (Human), UniProt P43116); assay: EP2 binding assay (Ki)
Description: (§1) U.S. patent application publication No. 20070129552, published on Jun. 7, 2007, incorporated by reference herein, describes the methods used to obtain the in vitro data in Table 1 below.

[2] = molecular target: T2, prostaglandin EP4 receptor (Homo sapiens (Human), UniProt P35408); assay: EP4 binding assay (Ki); settings: read-out: EP4 Ki EC50
Description: as §1

[3] = molecular target: T2, prostaglandin EP4 receptor; assay: EP4 cAMP functional assay; assay type: cell-based
Description: as §1

EP2 [4] = molecular target: T1, EP2; assay: EP2 cAMP functional assay; assay type: cell-based
Description: as §1

TP = TP (Homo sapiens (Human), UniProt P21731); assay: Other receptors FLIPR: TP; assay type: cell-based; settings: NA undefined in patent
Description: as §1

EP3 = EP3 (Homo sapiens (Human), UniProt P43115); assay: Other receptors FLIPR: EP3; assay type: cell-based; settings: NA undefined in patent
Description: as §1

T2 sequence (P35408 whole entry): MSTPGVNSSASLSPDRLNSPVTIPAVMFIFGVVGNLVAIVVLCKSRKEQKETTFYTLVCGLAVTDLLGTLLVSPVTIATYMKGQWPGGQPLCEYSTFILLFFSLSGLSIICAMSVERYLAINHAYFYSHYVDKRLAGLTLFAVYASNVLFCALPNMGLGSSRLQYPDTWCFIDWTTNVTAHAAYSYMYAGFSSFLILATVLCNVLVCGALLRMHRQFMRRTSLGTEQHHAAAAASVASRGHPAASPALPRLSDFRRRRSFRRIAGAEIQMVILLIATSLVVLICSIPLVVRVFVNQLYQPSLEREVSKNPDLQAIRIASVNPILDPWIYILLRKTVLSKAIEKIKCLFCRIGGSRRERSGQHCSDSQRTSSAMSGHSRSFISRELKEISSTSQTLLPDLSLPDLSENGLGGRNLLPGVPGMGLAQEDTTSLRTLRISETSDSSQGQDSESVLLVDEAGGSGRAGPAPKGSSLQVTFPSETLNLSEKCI
Sequence of TP (P21731 whole entry): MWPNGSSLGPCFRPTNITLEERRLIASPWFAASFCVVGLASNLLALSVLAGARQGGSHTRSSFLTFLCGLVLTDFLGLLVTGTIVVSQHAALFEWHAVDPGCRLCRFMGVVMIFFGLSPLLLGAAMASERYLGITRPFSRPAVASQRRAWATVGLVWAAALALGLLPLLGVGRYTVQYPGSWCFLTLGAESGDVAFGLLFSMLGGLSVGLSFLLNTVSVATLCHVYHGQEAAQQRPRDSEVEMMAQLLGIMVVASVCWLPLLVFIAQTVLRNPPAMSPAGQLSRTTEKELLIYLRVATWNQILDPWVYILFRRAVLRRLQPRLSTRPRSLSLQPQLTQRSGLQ
Sequence of EP3 (P43115 whole entry): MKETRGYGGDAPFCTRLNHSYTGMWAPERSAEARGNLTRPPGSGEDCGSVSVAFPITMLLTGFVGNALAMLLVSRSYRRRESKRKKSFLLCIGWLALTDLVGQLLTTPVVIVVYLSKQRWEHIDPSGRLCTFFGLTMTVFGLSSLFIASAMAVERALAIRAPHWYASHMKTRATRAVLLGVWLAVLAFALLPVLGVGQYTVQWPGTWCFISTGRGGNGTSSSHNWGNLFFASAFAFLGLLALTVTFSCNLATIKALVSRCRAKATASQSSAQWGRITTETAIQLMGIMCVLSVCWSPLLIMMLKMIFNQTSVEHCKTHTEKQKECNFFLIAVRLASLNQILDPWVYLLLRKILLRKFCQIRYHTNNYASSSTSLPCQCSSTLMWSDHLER
T1 sequence (P43116 whole entry): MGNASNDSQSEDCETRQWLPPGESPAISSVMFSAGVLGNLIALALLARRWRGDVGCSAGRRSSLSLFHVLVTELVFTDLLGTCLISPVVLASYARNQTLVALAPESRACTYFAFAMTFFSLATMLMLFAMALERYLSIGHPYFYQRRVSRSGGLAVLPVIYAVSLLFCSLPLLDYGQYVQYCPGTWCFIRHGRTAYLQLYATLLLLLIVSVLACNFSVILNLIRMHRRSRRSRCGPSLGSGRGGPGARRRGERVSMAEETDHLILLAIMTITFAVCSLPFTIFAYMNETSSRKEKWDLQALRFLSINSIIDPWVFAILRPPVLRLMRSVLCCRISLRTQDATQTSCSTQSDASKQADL

EP2 Ki (nM) (EP2 [1]) [K]	pKi [2]	pEC50 [3]	EP2 cAMP EC50 (nM) (EP2 [4]) [K]	pKi (EP2 [1])	pEC50 (EP2 [4])	EC50 (TP) [nM]	EC50 (EP3) [nM]	OTHER RECEPTORS FLIPR EC50 (nM): TP (TP) [nM]	SMILES
>10	9.10	9.00							O=C(O)c1ccc(CC[C@H]2C(=O)CC[C@@H]2/C=C/C(O)Cc2ccc3ccccc3c2)cc1 (single isomer, unassigned) [Entry 1]
>10	8.00	7.68							O=C(O)c1ccc(CC[C@H]2C(=O)CC[C@@H]2/C=C/C(O)Cc2ccc3ccccc3c2)cc1 (single isomer, unassigned) [Entry 2]
>10	5.64	5.89	>10						O=C(O)c1ccc(CC[C@H]2C(=O)CC[C@@H]2/C=C/C(O)Cc2sc3ccccc3c2Cl)cc1 (single isomer, unassigned) [Entry 3, (E)-4-(2-(2-(4-(3-chlorobenzo[b]thiophen-2-yl)-3-hydroxybut-1-en-1-yl)-5-oxocyclopentyl)ethyl)benzoic acid]
>10	6.22	6.73	>10						O=C(O)c1ccc(CC[C@H]2C(=O)CC[C@@H]2/C=C/C(O)Cc2sc3ccccc3c2Cl)cc1 (single isomer, unassigned) [Entry 4, (E)-4-(2-(2-(4-(3-chlorobenzo[b]thiophen-2-yl)-3-hydroxybut-1-en-1-yl)-5-oxocyclopentyl)ethyl)benzoic acid]
	7.40	9.00		5.47	7.11				O=C(O)c1ccc(CC[C@H]2C(=O)CC[C@@H]2/C=C/C(O)Cc2cccc(F)c2)cc1 (single isomer, unassigned) [Entry 5, (E)-4-(2-(2-(4-(3-fluorophenyl)-3-hydroxybut-1-en-1-yl)-5-oxocyclopentyl)ethyl)benzoic acid]
	8.70	10.40		5.75	8.00	7190	721		O=C(O)c1ccc(CC[C@H]2C(=O)CC[C@@H]2/C=C/C(O)Cc2cccc(F)c2)cc1 (single isomer, unassigned) [Entry 6, (E)-4-(2-(2-(4-(3-fluorophenyl)-3-hydroxybut-1-en-1-yl)-5-oxocyclopentyl)ethyl)benzoic acid]
	7.05	7.80		5.50	5.99				O=C(O)c1ccc(CC[C@H]2C(=O)CC[C@@H]2/C=C/C(O)Cc2cccc(C(F)(F)F)c2)cc1 (single isomer, unassigned) [Entry 11, (E)-4-(2-(2-(3-hydroxy-4-(3-(trifluoromethyl)phenyl)but-1-en-1-yl)-5-oxocyclopentyl)ethyl)benzoic acid]
	9.00	9.70		5.88	7.46	218			O=C(O)c1ccc(CC[C@H]2C(=O)CC[C@@H]2/C=C/C(O)Cc2cccc(C(F)(F)F)c2)cc1 (single isomer, unassigned) [Entry 12, (E)-4-(2-(2-(3-hydroxy-4-(3-(trifluoromethyl)phenyl)but-1-en-1-yl)-5-oxocyclopentyl)ethyl)benzoic acid]
	6.04	7.42		5.03					O=C(O)c1ccc(CC[C@H]2C(=O)CC[C@@H]2/C=C/C(O)Cc2ccc(F)cc2)cc1 (single isomer, unassigned) [Entry 19, (E)-4-(2-(2-(4-(4-fluorophenyl)-3-hydroxybut-1-en-1-yl)-5-oxocyclopentyl)ethyl)benzoic acid]
	8.52	9.70		6.13	7.96	5600	952		O=C(O)c1ccc(CC[C@H]2C(=O)CC[C@@H]2/C=C/C(O)Cc2ccc(F)cc2)cc1 (single isomer, unassigned) [Entry 20, (E)-4-(2-(2-(4-(4-fluorophenyl)-3-hydroxybut-1-en-1-yl)-5-oxocyclopentyl)ethyl)benzoic acid]
	7.19	8.40		5.65	7.12				O=C(O)c1ccc(CC[C@H]2C(=O)CC[C@@H]2/C=C/C(O)Cc2ccccc2F)cc1 (single isomer, unassigned) [Entry 21, (E)-4-(2-(2-(4-(2-fluorophenyl)-3-hydroxybut-1-en-1-yl)-5-oxocyclopentyl)ethyl)benzoic acid]
	8.40	9.52		5.99	8.10		4670		O=C(O)c1ccc(CC[C@H]2C(=O)CC[C@@H]2/C=C/C(O)Cc2ccccc2F)cc1 (single isomer, unassigned) [Entry 22, (E)-4-(2-(2-(4-(2-fluorophenyl)-3-hydroxybut-1-en-1-yl)-5-oxocyclopentyl)ethyl)benzoic acid]
	6.53	7.68		5.03					O=C(O)c1ccc(CC[C@H]2C(=O)CC[C@@H]2/C=C/C(O)Cc2ccc(F)c(F)c2)cc1 (single isomer, unassigned) [Entry 23, (E)-4-(2-(2-(4-(3,4-difluorophenyl)-3-hydroxybut-1-en-1-yl)-5-oxocyclopentyl)ethyl)benzoic acid]
	8.52	9.52		5.82	7.52	2450	1510		O=C(O)c1ccc(CC[C@H]2C(=O)CC[C@@H]2/C=C/C(O)Cc2ccc(F)c(F)c2)cc1 (single isomer, unassigned) [Entry 24, (E)-4-(2-(2-(4-(3,4-difluorophenyl)-3-hydroxybut-1-en-1-yl)-5-oxocyclopentyl)ethyl)benzoic acid]
	6.23	7.52		5.50	6.79				O=C(O)c1ccc(CC[C@H]2C(=O)CC[C@@H]2/C=C/C(O)Cc2cccc(F)c2F)cc1 (single isomer, unassigned) [Entry 25, (E)-4-(2-(2-(4-(2,3-difluorophenyl)-3-hydroxybut-1-en-1-yl)-5-oxocyclopentyl)ethyl)benzoic acid]
	8.70	9.70		5.91	8.10		9950		O=C(O)c1ccc(CC[C@H]2C(=O)CC[C@@H]2/C=C/C(O)Cc2cccc(F)c2F)cc1 (single isomer, unassigned) [Entry 26, (E)-4-(2-(2-(4-(2,3-difluorophenyl)-3-hydroxybut-1-en-1-yl)-5-oxocyclopentyl)ethyl)benzoic acid]
	6.34	7.74		5.44	6.90				O=C(O)c1ccc(CC[C@H]2C(=O)CC[C@@H]2/C=C/C(O)Cc2cc(F)ccc2F)cc1 (single isomer, unassigned) [Entry 27, (E)-4-(2-(2-(4-(2,5-difluorophenyl)-3-hydroxybut-1-en-1-yl)-5-oxocyclopentyl)ethyl)benzoic acid]
	8.30	9.70		5.89	8.00		5990		O=C(O)c1ccc(CC[C@H]2C(=O)CC[C@@H]2/C=C/C(O)Cc2cc(F)ccc2F)cc1 (single isomer, unassigned) [Entry 28, (E)-4-(2-(2-(4-(2,5-difluorophenyl)-3-hydroxybut-1-en-1-yl)-5-oxocyclopentyl)ethyl)benzoic acid]
	8.70	8.70		5.56	6.91	4830			O=C(O)c1ccc(CC[C@H]2C(=O)CC[C@@H]2/C=C/C(O)Cc2cccc(Cl)c2)cc1 (stereo partly drawn) [Entry 7, (E)-4-(2-(2-(4-(3-chlorophenyl)-3-hydroxybut-1-en-1-yl)-5-oxocyclopentyl)ethyl)benzoic acid]
>10	7.39	9.30					67	< 10000	O=C(O)c1ccc(CC[C@H]2C(=O)CC[C@@H]2/C=C/C(O)Cc2ccc3ccsc3c2)cc1 (stereo partly drawn) [Entry 15, (E)-4-(2-(2-(4-(benzo[b]thiophen-6-yl)-3-hydroxybut-1-en-1-yl)-5-oxocyclopentyl)ethyl)benzoic acid]
>10	5.58	6.14							COc1ccc2cc(CC(O)/C=C/[C@H]3CCC(=O)[C@@H]3CCc3ccc(C(=O)O)cc3)ccc2c1 (stereo partly drawn) [Entry 16, (E)-4-(2-(2-(3-hydroxy-4-(6-methoxynaphthalen-2-yl)but-1-en-1-yl)-5-oxocyclopentyl)ethyl)benzoic acid]
>10	5.34								COc1cc2ccccc2cc1CC(O)/C=C/[C@H]1CCC(=O)[C@@H]1CCc1ccc(C(=O)O)cc1 (stereo partly drawn) [Entry 17, (E)-4-(2-(2-(3-hydroxy-4-(3-methoxynaphthalen-2-yl)but-1-en-1-yl)-5-oxocyclopentyl)ethyl)benzoic acid]
>10	8.05	8.70							COc1ccc2ccc(CC(O)/C=C/[C@H]3CCC(=O)[C@@H]3CCc3ccc(C(=O)O)cc3)cc2c1 (stereo partly drawn) [Entry 18, (E)-4-(2-(2-(3-hydroxy-4-(7-methoxynaphthalen-2-yl)but-1-en-1-yl)-5-oxocyclopentyl)ethyl)benzoic acid]

SMILES	EP2 Ki (nM) (EP2 [1]) [K]	pKi [2]	pEC50 [3]	EP2 cAMP EC50 (nM) (EP2 [4]) [K]	pKi (EP2 [1])	pEC50 (EP2 [4])	EC50 (TP) [nM]	EC50 (EP3) [nM]	OTHER RECEPTORS FLIPR EC50 (nM): TP (TP) [nM]
O=C(O)c1ccc(CC[C@H]2C(=O)CC[C@@H]2/C=C/C(O)Cc2cccc(Br)c2)cc1 (single isomer, unassigned) [Entry 9, (E)-4-(2-(2-(4-(3-bromophenyl)-3-hydroxybut-1-en-1-yl)-5-oxocyclopentyl)ethyl)benzoic acid]					5.84	6.56			
O=C(O)c1ccc(CC[C@H]2C(=O)CC[C@@H]2/C=C/C(O)Cc2cccc(Br)c2)cc1 (single isomer, unassigned) [Entry 10, (E)-4-(2-(2-(4-(3-bromophenyl)-3-hydroxybut-1-en-1-yl)-5-oxocyclopentyl)ethyl)benzoic acid]					6.02	7.59	108	180	
